A word on the MIC: it is the lowest concentration that inhibits growth of the organism.

Drawing on publication PMC7482066, “Unstable Mechanisms of Resistance to Inhibitors of Escherichia coli Lipoprotein Signal Peptidase” (mBio, 2020), this text covers MIC for one compound.

Converted amounts (≈) assume the structure as drawn.

The test has as its system G0790-resistant E. coli CFT073. As to the kind of experiment: MIC against G0790-resistant CFT073 strains. It counts as cell-based. On the procedure: MICs of compounds in each strain were determined in cation-adjusted Mueller-Hinton II (MHII) broth or MHII agar according to the Clinical and Laboratory Standards Institute protocol (CLSI 2006). To measure the effect of protein binding on activity, MIC assays were performed in the presence of 50% heat-inactivated human serum. The serum killing assay was performed as described previously ([43]). FOR assays and growth on plates containing G0790 were always performed on MHII agarose plates.
Frequencies of resistance (FORs) of G0790 were determined for E. coli CFT073, E. cloacae (ATCC 13047), and K. pneumoniae (ATCC 700603) as previously published ([70]). To determine the FOR, 3 to 4 colonies of the strain to be tested were picked from a fresh plate and diluted to an optical density at 600 nm (OD600) of 0.00001 in 1 ml of cation-adjusted MHBII. Ten independent 5-ml cultures in MHBII were prepared by inoculating 5 μl (approximately 1 × 10^3 CFU) and incubated at 37°C for 18 h. The bacteria were pelleted by centrifugation at 4000 × g at 4°C for 15 min and resuspended in 0.5 ml fresh MHBII. Two hundred fifty microliters of the bacterial suspension was plated evenly on MHII agarose plates containing globomycin or G0790 at a final concentration of 4× and 8× MIC. In parallel, CFU from each independent culture was measured by spotting 10-fold serial dilutions on MHII agar plates and incubated at 37°C for 18 h. Colonies were counted at days 1, 2, and 3 postinoculation. FOR was calculated as the ratio of the total number of resistant colonies relative to the total CFU plated. For strains that had no resistant colonies growing on plates, the p0 method was used to calculate the FOR (FOR = m/total CFU plated, where m = −ln p0 and p0 is the proportion of cultures with no mutants; 0.7 ≥ p0 ≥ 0.1), as described previously ([71]). Colonies were picked and resuspended in 30 μl MHBII broth medium, and 10 μl was plated on an MHII agar plate containing G0790 to be used to determine the MIC. Of the remaining 20 μl, half was used to inoculate 1.5 ml MHBII broth medium containing G0790 and grown at 37°C for 18 h to generate cell lysates for Western blot analysis, isolate genomic DNA (gDNA) for whole-genome sequencing, and for frozen glycerol stocks.

Take `CCCCCC[C@H]1OC(=O)CNC(=O)[C@H]([C@H](C)O)NC(=O)[C@H](CN)NC(=O)[C@H](C2CCCCC2)NC(=O)[C@H](CCC)N(C)C(=O)[C@@H]1C` [G0790]: the MIC by setting is: (CFT073 4×-R1, ISEc10-istB insertion (3′ of lpp)) 19.5 µg/mL (≈ 29.2 µM); (CFT073 4×-R2, Lpp p.Asp54fs, Non-lspA_GA) 19.5 µg/mL (≈ 29.2 µM); (CFT073 4×-R3, lspA_GA) 19.5 µg/mL (≈ 29.2 µM); (CFT073 4×-R4, lpp deletion, Non-lspA_GA) 19.5 µg/mL (≈ 29.2 µM); (CFT073 4×-R6, ISEc10-istB insertion (3′ of lpp)) 39 µg/mL (≈ 58.5 µM); (CFT073 4×-R7, ISEc10-istB insertion (3′ of lpp), Non-lspA_GA) 39 µg/mL (≈ 58.5 µM). Moreover, the MIC came to 19.5 µg/mL (≈ 29.2 µM) (CFT073 4×-R9, lpp deletion); 19.5 µg/mL (≈ 29.2 µM) (CFT073 4×-R10, lspA_GA); 19.5 µg/mL (≈ 29.2 µM) (CFT073 8×-R1, lspA_GA); 39 µg/mL (≈ 58.5 µM) (CFT073 8×-R3, 5′ lpp deletion, Non-lspA_GA); 39 µg/mL (≈ 58.5 µM) (CFT073 8×-R4, lpp deletion); 39 µg/mL (≈ 58.5 µM) (CFT073 8×-R5, ISEc10-istB insertion (5′ of lpp), lspA_GA). Moreover, the MIC (CFT073 8×-R6, lpp deletion, Non-lspA_GA) is 19.5 µg/mL (≈ 29.2 µM).
